From ChEMBL document CHEMBL1201862, “PubChem BioAssay data set” (2004) come the findings set out here.

Assay [1] deals with Streptococcus sp. 'group A'. The experiment in a line: growth inhibition of control SK(-) GAS strain, dose response, counter-screen for streptokinase expression inhibitor project, luminescence, kanamycin, BacTiterGlo, confirmation (AID 1900). It is filed as functional, organism-based.
Assay [2] has as its system Streptococcus. As to the kind of experiment: Group A Streptococcus viability loss, dose response, counter-screen for streptokinase expression inhibitor project, luminescence, BacTiterGlo (AID 1915).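 Further: potency for reduction of bacterial viability or growth.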 Format: functional, organism-based.
The target of assay [3] is T1, Streptokinase A (Streptococcus pyogenes serotype M1, UniProt P10520).
T1 sequence (P10520 whole entry): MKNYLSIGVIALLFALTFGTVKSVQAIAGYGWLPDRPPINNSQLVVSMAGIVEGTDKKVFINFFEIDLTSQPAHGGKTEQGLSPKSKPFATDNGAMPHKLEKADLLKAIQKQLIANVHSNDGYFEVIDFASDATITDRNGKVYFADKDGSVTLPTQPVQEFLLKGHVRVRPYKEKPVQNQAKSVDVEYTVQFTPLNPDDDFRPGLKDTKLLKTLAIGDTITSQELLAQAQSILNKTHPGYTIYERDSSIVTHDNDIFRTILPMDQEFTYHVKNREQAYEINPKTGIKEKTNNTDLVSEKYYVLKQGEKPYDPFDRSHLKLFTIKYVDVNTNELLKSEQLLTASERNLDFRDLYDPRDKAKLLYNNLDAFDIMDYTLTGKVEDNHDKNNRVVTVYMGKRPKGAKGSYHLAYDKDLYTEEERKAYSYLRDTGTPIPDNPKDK
The experiment in a line: S. pyogenes streptokinase expression inhibitors, potency, dose response, plasminogen activation absorbance, OD405 (AID 1914).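 Further: secreted streptokinase activity via plasminogen activation per viability signal from cell pellet.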 Format: functional, Streptococcus pyogenes M1 GAS.

A short description of assay [4]: Luminescence Cell-Based Dose Retest to Confirm Inhibitors of Cancer Stem Cells. [Related pubchem assays (depositor defined):AID2717, AID2721]. The settings on record: Homo sapiens. Format: functional.
The nature of assay [5]: inhibitors of intracellular T. cruzi replication, confirmation, NIH3T3 host cells, beta-gal luminescence (AID 2044).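 Further: intracellular parasites grown in NIH/3T3 mouse fibroblasts as host cells; luminescent beta-galactosidase reporter signal from transgenic T. cruzi replicating inside host cells; inhibitors lower the luminescence signal.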 It is filed as functional, cell-based.
Assay [6] is described as follows: cytotoxicity toward NIH3T3 fibroblasts, dose response, counter-screen, cell-based, ATP luminescence, mouse fibroblasts (AID 2010).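 Further: cells exposed to compound for about 90 hours before reading.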 It is filed as functional.
The target in assay [7] is T2, Cytochrome P450 1A2 (Homo sapiens, UniProt P05177).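 Further: PubChem cytochrome P450 panel assay, CYP1A2 panel member.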
T2 sequence (P05177 whole entry): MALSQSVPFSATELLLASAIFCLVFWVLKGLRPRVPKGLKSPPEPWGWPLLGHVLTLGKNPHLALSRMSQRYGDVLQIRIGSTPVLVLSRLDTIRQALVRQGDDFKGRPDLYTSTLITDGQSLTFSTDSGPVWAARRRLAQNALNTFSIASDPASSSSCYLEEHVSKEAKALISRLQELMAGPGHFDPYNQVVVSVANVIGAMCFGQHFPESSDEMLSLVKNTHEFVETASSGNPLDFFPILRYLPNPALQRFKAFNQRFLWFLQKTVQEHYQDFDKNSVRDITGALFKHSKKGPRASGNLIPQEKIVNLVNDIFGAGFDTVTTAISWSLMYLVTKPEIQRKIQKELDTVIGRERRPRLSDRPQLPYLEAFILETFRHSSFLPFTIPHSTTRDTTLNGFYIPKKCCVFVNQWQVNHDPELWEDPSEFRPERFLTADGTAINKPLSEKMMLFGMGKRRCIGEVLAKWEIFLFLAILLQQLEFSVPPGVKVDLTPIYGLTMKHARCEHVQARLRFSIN

Activity calls are given as the source filed them. For most assays here, no stated cut-off is given here; in the data, actives have a measured EC50 and inactives only a lower limit. Where only a bound is given, the exact number is not on record here.

The term EC50 denotes the midpoint of the concentration-response curve. As to `CCCCn1c(=O)c(C(=O)NCCc2ccccc2)c(O)c2ccccc21`, the EC50 in assay [1] is 26.4 µM (active); in assay [2], > 150 µM (not active); in assay [3], 30.9 µM (active).
Consider `CCOC(=O)c1ccc(N2C(=O)/C(=C\NNC(=O)C3COc4ccccc4O3)c3ccccc3C2=O)cc1` (stereo unspecified), for which the EC50 is 1.02 µM (active) in assay [1] and 4.31 µM (active) in assay [2].
On to `Cc1cccc(OCCCOc2cccc3cccnc23)c1C`, for which the results for the EC50 in assay [1], in assay [2] and in assay [3] were 16.9 µM (active), > 150 µM (not active) and > 150 µM (not active), respectively.
As a reminder, the AC50 is the midpoint of the concentration-response curve, whichever way the signal moves. As to `CC(=O)c1ccc(N2CCN(S(=O)(=O)c3cc(-c4cc(C)no4)ccc3C(C)C)CC2)cc1`, in assay [4], the AC50 was < 0.16 µM (active).
On to `Cc1[nH]c2ccc(F)cc2c1CCN(Cc1cccnc1)C(S)=Nc1cccc(F)c1`, for which the 50% effective concentration (EC50) in assay [5] is 0.608 µM (active); in assay [6], > 30 µM (not active).
In the case of `O=C(/C=C/c1cccc(F)c1)NC1CCN(Cc2ccccc2)CC1`, the values for the EC50 in assay [5] and in assay [6] were 0.102 µM (active) and > 60 µM (not active), respectively.
Take `CCNc1ncc2nc(-c3cn(C)c4ccccc34)c(=O)n(C[C@H]3CCCO3)c2n1`: the AC50 in assay [7] is 10 µM (inconclusive).
With `CCOc1ccc(CN2CCN(Cc3[nH]c4ccc(OC)cc4c3C)CC2CCO)cc1` (stereo unspecified), the EC50 is 0.141 µM (active) in assay [5] and > 60 µM (not active) in assay [6].
As to `Cc1ccc(CCNc2c([N+](=O)[O-])nn(-c3ccccc3)[n+]2[O-])cc1`, the figures for the EC50 in assay [5] and in assay [6] were 1.15 µM (active) and > 30 µM (not active), respectively.
Turning to `COc1ccc(C2CC(C)(c3ccc(OC)cc3OC)Nc3ccccc3N2)c(OC)c1` (stereo unspecified), the EC50 in assay [5] was 1.96 µM (active); in assay [6], > 60 µM (not active).
Turning to `CN(C)CCCN(C(=O)c1ccco1)c1nc2c(F)cc(F)cc2s1`, the EC50 in assay [5] is 0.101 µM (active); in assay [6], > 60 µM (not active).
Take `O=C(Nc1cccc(Cl)c1N1CCCCC1)c1ccc2c(c1)OCCO2`: the EC50 is 9.41 µM (active) in assay [1], > 150 µM (not active) in assay [2] and > 150 µM (not active) in assay [3]. Moreover, the AC50 in assay [4] is 7.74 µM (active).
As for `Cc1cc(C)c(OCC(=O)Nc2ccccc2N2CCCCC2)c(C)c1`, the EC50 in assay [1] is 25.7 µM (active); in assay [2] it was 15.7 µM (active); in assay [3] it was 4.09 µM (active).
In the case of `Cc1cccc(CN2CCN(C(c3ccccc3)c3ccc(Cl)cc3)CC2)c1` (stereo unspecified) [MECLIZINE DIHCL], the AC50 in assay [4] is 3.57 µM (active).
As for `Cc1ccccc1/C=N/Nc1nc2ccccc2[nH]1`, the EC50 is 146 µM (active) in assay [1], > 150 µM (not active) in assay [2] and > 150 µM (not active) in assay [3].
On to `O=C(N/N=C/c1cn(-c2cccs2)nc1-c1ccccc1)c1ccc(O)cc1`, for which the AC50 in assay [4] is 8.96 µM (active).
As for `C1CCC(C(C[C@@H]2CCCCN2)C2CCCCC2)CC1`, in assay [7], the AC50 was 6.31 µM (inconclusive).
For `CC12CN3CC(C)(CN(C1)C31CCSCC1)C2=O`, the AC50 in assay [7] is 12.6 µM (inconclusive).
As to `CC[C@H]1OC(=O)C[C@@H](O)[C@H](C)[C@@H](O[C@@H]2O[C@H](C)C[C@H](N(C)C)[C@H]2O)[C@@H](CC=O)C[C@@H](C)C(=O)C=C[C@]2(C)O[C@H]2[C@@H]1C`, the EC50 in assay [1] and in assay [2] was < 0.06 µM (active) throughout.
For `CCOC(=O)N1CCC(N2Cc3cccc(C(=O)Nc4ccc(F)cc4)c3C2=O)CC1`, the EC50 in assay [1] was 4.41 µM (active); in assay [2], > 150 µM (not active); in assay [3], > 150 µM (not active).
`CC(NNc1ccccc1)=C1C(=O)NC(=O)NC1=O`: in assay [4], the AC50 is 1.02 µM (active).
Consider `Cc1ccc(C(=O)C(c2ccccc2)N2Cc3ccccc3C2=N)cc1` (stereo unspecified), for which the EC50 is 5.37 µM (active) in assay [1], > 150 µM (not active) in assay [2] and 4.15 µM (active) in assay [3].
As for `COc1cccc(N2C(=O)C3NN=C(C(=O)CN4C(=O)c5ccccc5C4=O)C3C2=O)c1` (stereo unspecified), the EC50 in assay [1], in assay [2] and in assay [3] was > 150 µM (not active) each time.
For `Cc1cc(SCC(=O)N/N=C/c2ccc(O)cc2O)nc2ccccc12`, the AC50 in assay [4] is 4.06 µM (active). The EC50 in assay [5] was 1.71 µM (active); in assay [6], 18.8 µM (active).
For `CC(C)(c1ccc(OC[C@@H]2CO2)cc1)c1ccc(OC[C@H]2CO2)cc1`, the AC50 in assay [7] was 31.6 µM (inconclusive).
As to `O=C(O)c1ccc(NC(=S)NC(=O)c2cccc(COc3ccccc3)c2)cc1`, the results for the EC50 in assay [1] and in assay [2] were 18.6 µM (active) and 38 µM (active), respectively.
Turning to `CC(=O)OCC1=C(C(=O)O)N2C(=O)C(NC(=O)CCn3nc(C)c(Cl)c3C)C2SC1` (stereo unspecified), the EC50 in assay [1] is 2.13 µM (active); in assay [2], 1.31 µM (active).
For the compound `Cn1c(Sc2ccccc2Cl)c(C=O)c2ccccc21`, the EC50 in assay [1] is 27.1 µM (active); in assay [2], > 150 µM (not active); in assay [3], 32.3 µM (inconclusive).
In the case of `c1ccc(N2N=C(c3cccs3)CC2c2ccco2)cc1` (stereo unspecified), the figures for the EC50 in assay [1], in assay [2] and in assay [3] were > 150 µM (not active), > 150 µM (not active) and 40.1 µM (active), respectively.
As for `COc1cc2c(cc1NC(=O)CN(C)Cc1cccc(OC)c1OC)oc1ccccc12`, in assay [4], the AC50 was 2.86 µM (active).
On to `CCN(CC)C1CCN(C(=O)c2cc(COc3ccc(F)cc3Cl)on2)C1` (stereo unspecified), for which, in assay [4], the AC50 was 1.21 µM (active).
For `FC(F)(F)c1cccc(NC(=S)Nc2ccc(Cl)c(Cl)c2)c1`, the half-maximal effective concentration (EC50) in assay [3] was > 150 µM (not active).
As to `CC1CCN(c2ccccc2NC(=O)c2cc3ccccc3o2)CC1`, the EC50 in assay [1] is 8.15 µM (active); in assay [2], 42.4 µM (active); in assay [3] it was 25.2 µM (active).
On to `Cc1cccc(/C=N/NC(=O)Cc2ccc(Cl)cc2)c1O`, for which the EC50 in assay [1] is 4.52 µM (active); in assay [2], 7.4 µM (active).
As for `FC(F)(F)c1cccc(NC(S)=Nc2ccc(Cl)c(Cl)c2)c1`, the results for the EC50 in assay [1] and in assay [2] were 2.45 µM (active) and 6.78 µM (active), respectively.
For the compound `CCCCCCCCCCCCCCCCCCc1ccc(C(=O)/C=C\C(=O)O)cc1`, in assay [7], the AC50 is 31.6 µM (inconclusive).
In the case of `O=C(NNC(=S)NC(=O)c1ccc(Br)cc1)c1cccc([N+](=O)[O-])c1`, the EC50 is 2.41 µM (active) in assay [1], 9.6 µM (active) in assay [2] and > 150 µM (not active) in assay [3].
On to `COc1ccc(NC2=NN=C(c3c(C)[nH]c4ccccc34)CS2)cc1`, for which the EC50 in assay [1] was 3.9 µM (active); in assay [2], 13 µM (active); in assay [3] it was > 150 µM (not active). Besides, the AC50 in assay [4] is 7.35 µM (active).
Turning to `COC(=O)c1ccc(/C=C/c2c(-c3ccsc3)sc3ccccc23)cc1`, in assay [4], the AC50 is 4.12 µM (active).
With `CCOC(=O)N1CCC(n2c(SCC(=O)Nc3ccccc3OC)nc3ccccc3c2=O)CC1`, the EC50 is 5.24 µM (active) in assay [5] and > 60 µM (not active) in assay [6].
For `C=CCc1cccc(/C=N/NC(=O)C(=O)Nc2ccc(C)cc2)c1O`, the EC50 in assay [1], in assay [2] and in assay [3] was > 150 µM (not active) throughout.
